Test results published in PMC11409674, “Raffinocyclicin is a novel plasmid-encoded circular bacteriocin produced by Lactococcus raffinolactis with broad-spectrum activity against many gram-positive food pathogens” (Applied and environmental microbiology, 2024).
“Also recorded” adds a separate entry of the source.

How the values were obtained:
proteases = system: proteases; set-up: method as in 4 sources, ref 33 = [33]; PMID 21948835; doi:10.1128/AEM.06348-11; 33 Masuda Y Ono H Kitagawa H Ito H Mu F Sawa N Zendo T Sonomoto K Identification and characterization of leucocyclicin Q, a novel cyclic bacteriocin produced by Leuconostoc mesenteroides TK41401 Appl ||| ref 27 = [27]; PMID 21057028; doi:10.1128/AEM.01173-10; 27 Borrero J Brede DA Skaugen M Diep DB Herranz C Nes IF Cintas LM Hernández PE Characterization of garvicin ML, a novel circular bacteriocin produced by Lactococcus garvieae DCC43, isolated from mall ||| ref 30 = [30]; PMID 29177092; doi:10.1099/mgen.0.000134; 30 van Heel AJ Montalban-Lopez M Oliveau Q Kuipers OP Genome-guided identification of novel head-to-tail cyclized antimicrobial peptides, exemplified by the discovery of pumilarin Microb Genom 2017 3 ||| ref 29 = [29]; PMID 18552180; doi:10.1128/AEM.00817-08; 29 Martin-Visscher LA van Belkum MJ Garneau-Tsodikova S Whittal RM Zheng J McMullen LM Vederas JC Isolation and characterization of carnocyclin A, a novel circular bacteriocin produced by Carnobacteri; conditions: cited from earlier work
[1] = system: Staphylococcus epidermidis DSM 3095; assay: spot-on-lawn assay; assay type: cell-based; conditions: producer spot on M17, chloroform-inactivated, overlay ~7.0 log CFU/mL indicator; 37 °C, Aerobic, BHI; true halo, triplicate
[2] = system: Staphylococcus capitis APC 2923; assay: spot-on-lawn assay; assay type: cell-based; set-up: key: –: no activity; +: 0.5–5 mm inhibition zone; ++: >5–≤10 mm inhibition zone; +++: >10 mm inhibition zone; conditions: producer spot on M17, chloroform-inactivated, overlay ~7.0 log CFU/mL indicator; 37 °C, Aerobic, BHI; true halo, triplicate
[3] = system: Staphylococcus pseudointermedius DK 279; assay: spot-on-lawn assay; assay type: cell-based; set-up: key: –: no activity; +: 0.5–5 mm inhibition zone; ++: >5–≤10 mm inhibition zone; +++: >10 mm inhibition zone; conditions: producer spot on M17, chloroform-inactivated, overlay ~7.0 log CFU/mL indicator; 37 °C, Aerobic, BHI; true halo, triplicate
[4] = system: Staphylococcus aureus DPC 5645; assay: spot-on-lawn assay; assay type: cell-based; set-up: key: –: no activity; +: 0.5–5 mm inhibition zone; ++: >5–≤10 mm inhibition zone; +++: >10 mm inhibition zone; conditions: producer spot on M17, chloroform-inactivated, overlay ~7.0 log CFU/mL indicator; 37 °C, Aerobic, BHI; true halo, triplicate
S. aureus C5M = assay: spot-on-lawn assay; assay type: cell-based, Staphylococcus aureus; set-up: key: –: no activity; +: 0.5–5 mm inhibition zone; ++: >5–≤10 mm inhibition zone; +++: >10 mm inhibition zone; conditions: producer spot on M17, chloroform-inactivated, overlay ~7.0 log CFU/mL indicator; 37 °C, Aerobic, BHI; true halo, triplicate
S. aureus B2M = assay: spot-on-lawn assay; assay type: cell-based, Staphylococcus aureus; conditions: producer spot on M17, chloroform-inactivated, overlay ~7.0 log CFU/mL indicator; 37 °C, Aerobic, BHI; true halo, triplicate
[5] = system: Enterococcus faecalis ATCC 29200; assay: spot-on-lawn assay; assay type: cell-based; conditions: producer spot on M17, chloroform-inactivated, overlay ~7.0 log CFU/mL indicator; 37 °C, Aerobic, BHI; true halo, triplicate
E. faecalis V583 = assay: spot-on-lawn assay; assay type: cell-based, Enterococcus faecalis; conditions: producer spot on M17, chloroform-inactivated, overlay ~7.0 log CFU/mL indicator; 37 °C, Aerobic, BHI; true halo, triplicate
[6] = system: Enterococcus faecium NCD 0942; assay: spot-on-lawn assay; assay type: cell-based; conditions: producer spot on M17, chloroform-inactivated, overlay ~7.0 log CFU/mL indicator; 37 °C, Aerobic, BHI; true halo, triplicate
E. faecium DPC 5152 = assay: spot-on-lawn assay; assay type: cell-based, Enterococcus faecium; conditions: producer spot on M17, chloroform-inactivated, overlay ~7.0 log CFU/mL indicator; 37 °C, Aerobic, BHI; true halo, triplicate
E. faecium DPC 3675 = assay: spot-on-lawn assay; assay type: cell-based, Enterococcus faecium; conditions: producer spot on M17, chloroform-inactivated, overlay ~7.0 log CFU/mL indicator; 37 °C, Aerobic, BHI; true halo, triplicate
E. faecium DSM 26544 = assay: spot-on-lawn assay; assay type: cell-based, Enterococcus faecium; conditions: producer spot on M17, chloroform-inactivated, overlay ~7.0 log CFU/mL indicator; 37 °C, Aerobic, BHI; true halo, triplicate
VRE APC 1026 = assay: spot-on-lawn assay; assay type: cell-based, vancomycin-resistant enterococci; conditions: producer spot on M17, chloroform-inactivated, overlay ~7.0 log CFU/mL indicator; 37 °C, Aerobic, BHI; true halo, triplicate
VRE APC 1027 = assay: spot-on-lawn assay; assay type: cell-based, vancomycin-resistant enterococci; conditions: producer spot on M17, chloroform-inactivated, overlay ~7.0 log CFU/mL indicator; 37 °C, Aerobic, BHI; true halo, triplicate
VRE APC 1028 = assay: spot-on-lawn assay; assay type: cell-based, vancomycin-resistant enterococci; conditions: producer spot on M17, chloroform-inactivated, overlay ~7.0 log CFU/mL indicator; 37 °C, Aerobic, BHI; true halo, triplicate
VRE APC 1029 = assay: spot-on-lawn assay; assay type: cell-based, vancomycin-resistant enterococci; conditions: producer spot on M17, chloroform-inactivated, overlay ~7.0 log CFU/mL indicator; 37 °C, Aerobic, BHI; true halo, triplicate
[7] = system: Micrococcus luteus APC 4061; assay: spot-on-lawn assay; assay type: cell-based; conditions: producer spot on M17, chloroform-inactivated, overlay ~7.0 log CFU/mL indicator; 37 °C, Aerobic, BHI; true halo, triplicate
[8] = system: Streptococcus agalactiae 35; assay: spot-on-lawn assay; assay type: cell-based; conditions: producer spot on M17, chloroform-inactivated, overlay ~7.0 log CFU/mL indicator; 37 °C, Aerobic, TSA; true halo, triplicate
S. agalactiae 119 = assay: spot-on-lawn assay; assay type: cell-based, Streptococcus agalactiae; conditions: producer spot on M17, chloroform-inactivated, overlay ~7.0 log CFU/mL indicator; 37 °C, Aerobic, TSA; true halo, triplicate
Lactococcus lactis HP = assay: spot-on-lawn assay; assay type: cell-based; conditions: producer spot on M17, chloroform-inactivated, overlay ~7.0 log CFU/mL indicator; 30 °C, Aerobic, GM17; true halo, triplicate
L. lactis ATCC 11454 = assay: spot-on-lawn assay; assay type: cell-based, Lactococcus lactis; conditions: producer spot on M17, chloroform-inactivated, overlay ~7.0 log CFU/mL indicator; 30 °C, Aerobic, GM17; true halo, triplicate
[9] = system: Lactobacillus delbrueckii subsp. bulgaricus LMG 6901; assay: spot-on-lawn assay; assay type: cell-based; conditions: producer spot on M17, chloroform-inactivated, overlay ~7.0 log CFU/mL indicator; 37 °C, Anaerobic, MRS; true halo, triplicate
[10] = system: Leuconostoc mesenteroides KH 24; assay: spot-on-lawn assay; assay type: cell-based; conditions: producer spot on M17, chloroform-inactivated, overlay ~7.0 log CFU/mL indicator; 30 °C, Aerobic, MRS; true halo, triplicate
Listeria innocua UCC = assay: spot-on-lawn assay; assay type: cell-based; conditions: producer spot on M17, chloroform-inactivated, overlay ~7.0 log CFU/mL indicator; 37 °C, Aerobic, BHI; true halo, triplicate
[11] = system: Listeria monocytogenes EDGe; assay: spot-on-lawn assay; assay type: cell-based; conditions: producer spot on M17, chloroform-inactivated, overlay ~7.0 log CFU/mL indicator; 37 °C, Aerobic, BHI; true halo, triplicate
[12] = system: Clostridium perfringens EM124; assay type: cell-based; conditions: producer spot on M17, chloroform-inactivated, overlay ~7.0 log CFU/mL indicator; 37 °C, Anaerobic, RCM; true halo, triplicate
Bacilllus cereus KH 1453 = assay: spot-on-lawn assay; assay type: cell-based; set-up: key: –: no activity; +: 0.5–5 mm inhibition zone; ++: >5–≤10 mm inhibition zone; +++: >10 mm inhibition zone; conditions: producer spot on M17, chloroform-inactivated, overlay ~7.0 log CFU/mL indicator; 37 °C, Aerobic, BHI; true halo, triplicate
Escherichia sp. UCC = assay: spot-on-lawn assay; assay type: cell-based; set-up: key to Activity (inhibition zone): –: no activity; +: 0.5–5 mm inhibition zone; ++: >5–≤10 mm inhibition zone; +++: >10 mm inhibition zone
Procedure: The antimicrobial activity of the strain L. raffinolactis APC 3967 was evaluated on M17 medium by the agar-spot test as described by Giambiagi-deMarval et al. ([42]) with minor modifications ([42]). Briefly, 5 µL of an overnight growth suspension of the producer strain was spotted on the surface of the agar plate and incubated overnight at 30°C. Cells were inactivated by chloroform and overlaid with 3 mL soft agar (0.75% wt/vol) containing the target strain (~7.0 log CFU/mL), and these plates were incubated overnight. The growth conditions of every target strain used in this assay are outlined in Table 1. The interpretation of inhibition was performed by measuring the true halo of the inhibitory zone (total halo – spot size = true halo) and was classified into one of four groups: (i) no inhibition (0 mm); (ii) weak inhibition (0.5–5 mm); (iii) moderate inhibition (>5–≤10 mm); and (iv) strong inhibition (>10 mm). These assays were performed in triplicate.

[13] = system: Klebsiella pneumoniae C02.b; assay: spot-on-lawn assay; assay type: cell-based; set-up: key: –: no activity; +: 0.5–5 mm inhibition zone; ++: >5–≤10 mm inhibition zone; +++: >10 mm inhibition zone; conditions: producer spot on M17, chloroform-inactivated, overlay ~7.0 log CFU/mL indicator; 37 °C, Aerobic, BHI; true halo, triplicate
[14] = system: Pseudomonas aeruginosa PA-01; assay: spot-on-lawn assay; assay type: cell-based; set-up: key: –: no activity; +: 0.5–5 mm inhibition zone; ++: >5–≤10 mm inhibition zone; +++: >10 mm inhibition zone; conditions: producer spot on M17, chloroform-inactivated, overlay ~7.0 log CFU/mL indicator; 37 °C, Aerobic, BHI; true halo, triplicate
[15] = residual antimicrobial activity after NaOH treatment; assay type: physicochemical; conditions: NaOH 0.2 M, 37 °C, 4 h
Procedure: The effects of proteinase K (1 mg/mL; Sigma-Aldrich, St Louis, USA), trypsin (1 mg/mL; Merck KgaA, Darmstad, DE), and 0.2 M NaOH on antimicrobial activity were evaluated on agar plates by the methods described previously ([42]). Briefly, 5 µL of an overnight growth suspension of the strain L. raffinolactis APC 3967 was spotted four times on a plate and incubated at optimal conditions. Afterward, the cells were inactivated by chloroform, and 40 µL of the corresponding treatment (protease or NaOH 0.2 M) was spotted around the producer strain. The control was treated with 10 mM PBS, pH 7.4. The plate was incubated at 37°C for 4 h to favor protease activity. The plate was then overlaid with L. lactis HP and incubated at 30°C for 24 h. Results were interpreted by measuring the true halo of the sample, and the following equation calculated the final values of the residual activity: (true halo of treated condition/true halo of the control) × 100 = residual activity (%).

lactocyclicin Q
sensitivity to proteolytic activity (proteases): resistant

leucocyclicin Q
sensitivity to proteolytic activity (proteases): resistant

raffinocyclicin
Activity (inhibition zone) [1]: + (0.5–5 mm inhibition zone)
Activity (inhibition zone) [2]: –
Activity (inhibition zone) [3]: –
Activity (inhibition zone) [4]: –
Activity (inhibition zone) (S. aureus C5M): –
Activity (inhibition zone) (S. aureus B2M): + (0.5–5 mm inhibition zone)
Activity (inhibition zone) [5]: ++ (>5–≤10 mm inhibition zone)
Activity (inhibition zone) (E. faecalis V583): + (0.5–5 mm inhibition zone)
Activity (inhibition zone) [6]: ++ (>5–≤10 mm inhibition zone)
Activity (inhibition zone) (E. faecium DPC 5152): + (0.5–5 mm inhibition zone)
Activity (inhibition zone) (E. faecium DPC 3675): ++ (>5–≤10 mm inhibition zone)
Activity (inhibition zone) (E. faecium DSM 26544): + (0.5–5 mm inhibition zone)
Activity (inhibition zone) (VRE APC 1026): ++ (>5–≤10 mm inhibition zone)
Activity (inhibition zone) (VRE APC 1027): ++ (>5–≤10 mm inhibition zone)
Activity (inhibition zone) (VRE APC 1028): ++ (>5–≤10 mm inhibition zone)
Activity (inhibition zone) (VRE APC 1029): ++ (>5–≤10 mm inhibition zone)
Activity (inhibition zone) [7]: ++ (>5–≤10 mm inhibition zone)
Activity (inhibition zone) [8]: ++ (>5–≤10 mm inhibition zone)
Activity (inhibition zone) (S. agalactiae 119): ++ (>5–≤10 mm inhibition zone)
Activity (inhibition zone) (Lactococcus lactis HP): +++ (>10 mm inhibition zone)
Activity (inhibition zone) (L. lactis ATCC 11454): +++ (>10 mm inhibition zone)
Activity (inhibition zone) [9]: + (0.5–5 mm inhibition zone)
Activity (inhibition zone) [10]: + (0.5–5 mm inhibition zone)
Activity (inhibition zone) (Listeria innocua UCC): ++ (>5–≤10 mm inhibition zone)
Activity (inhibition zone) [11]: + (0.5–5 mm inhibition zone)
Activity (inhibition zone) [12]: +++ (>10 mm inhibition zone)
Activity (inhibition zone) (Bacilllus cereus KH 1453): –
Activity (inhibition zone) (Escherichia sp. UCC; producer spot on M17, chloroform-inactivated, overlay ~7.0 log CFU/mL indicator, 37 °C, Aerobic, BHI, true halo, triplicate): –
inhibition in the spot-on-lawn assay, in words (Escherichia sp. UCC; spot-on-lawn assay, producer L. raffinolactis APC 3967): No inhibition
Activity (inhibition zone) [13]: –
Activity (inhibition zone) [14]: –
antimicrobial activity after NaOH treatment, in words ([15]; indicator L. lactis HP): resistant; also recorded: remained unchanged
Phenotype ([15]; 40 µL spotted around chloroform-inactivated producer spot, overlay L. lactis HP, 30 °C, 24 h): R
Residual activity ([15]; 40 µL spotted around chloroform-inactivated producer spot, overlay L. lactis HP, 30 °C, 24 h, true halo treated/control (10 mM PBS pH 7.4) × 100): 100%
